Our source for the inhibition and Ki values is patent publication US5760230A, “4, 4'-bridged bis-2, 4-diaminoquinazolines” (Bayer Aktiengesellschaft, priority 1996, dated 1998).

For experiment [1], the system named is potassium channels (PC12 cells). The experiment is described as follows: Non-radioactive Rb^+ efflux assay for the identification of potassium channel modulators in PC12 cells. The conditions noted are these: Rattus norvegicus, PC-12, 10 min, test concentration of 10 μM, 50 mM KCl stimulation. The experiment is classed as cell-based. As to the method:
2) Non-radioactive Rb^+ efflux assay for the identification of potassium channel modulators
The potassium in PC12 cells is exchanged with rubidium, which is not present in the cells. This exchange is performed by incubating the cells over a period of 4 h in a physiological buffer containing 5.4 mM RbCl without KCl. This rubidium subsequently serves as a tracer for potassium.
The cells laden with Rb^+ in this way are washed three times and then stimulated by depolarization with 50 mM KCl to open potassium channels (10 min), causing Rb^+ to flow out of the cells into the supernatant according to the concentration gradient.
The rubidium contents in the cell supernatant and in the residual cells after they have been lysed with 1% Triton X-100 are then determined by means of atomic absorption spectroscopy. The relative proportion of rubidium in the cell supernatant (=Rb^+ efflux) is used as a measure of the potassium channel activity.
The effect of substances on the channel activity is measured by co-incubating, the test substance over the ten-minute stimulation period and determining its effect on the Rb^+ efflux in the manner described above.

In experiment [2] the target is apamine binding sites (bovine cerebral membrane, hippocampus). In words: Binding of ^125 I-apamine to bovine cerebral membrane. As to conditions: 30 pM ^125 I-apamine, calf hippocampus membranes, pH 7.4, 60 min on ice. As for the experimental part:
The compounds according to the invention are ligands for apamine-sensitive potassium channels. This can be shown by studying the affinity for apamine binding sites, e.g. in bovine cerebral membranes.
1) Binding of ^125 I-apamine to bovine cerebral membrane
Calf brains were obtained from the local abattoir. The hippocampus was prepared on ice and a membrane suspension was made up by homogenization twice in buffer (100 mM Tris-HCl, KCl 5 mM, pH 7.4) and centrifugation at 43,000×g. In a total volume of 500 μl, the incubation mixture contained 200 μg of membrane protein, 30 pM ^125 I-apamine and test substances in the concentration range 1×10^-9 to 1×10^-4 M. The non-specific binding of ^125 I-apamine was determined in the presence of 1×10^-7 M unlabelled apamine.
After preincubation for 30 min at room temperature (test substances and membrane homogenate), the samples were placed on ice for 10 min before the radioligand was added. The main incubation time was 60 min on ice. When the reaction time had elapsed, an excess of ice-cooled incubation buffer was added to each sample and the mixture was filtered with suction through cellulose acetate/nitrate membrane filters. The amount of bound ^125 I-apamine was measured with a gamma counter.

One may read the inhibition as how much of the control response was suppressed. Usually Ki stands for a dissociation constant, usually derived from enzyme kinetics or from competition with a known ligand. Lower therefore signals a stronger hold on the target.

Molecules are shown by their SMILES.

For `CCN(CC)c1nc(NCCCNc2nc(N(CC)CC)nc3ccccc23)c2ccccc2n1` [Example 3], the inhibition at 10 µM in experiment [1] came out at 81%.
Compound `CCN(CC)c1nc(NCC2CCCC(CNc3nc(N(CC)CC)nc4ccccc34)C2)c2ccccc2n1` (mixture of isomers) [Example 1, 1,3-Bis-[(2-diethylamino-4-quinazolyl)-aminomethyl]-cyclohexane (cis/trans isomeric mixture)] gave a Ki in experiment [2] of 160 nM. The inhibition at 10 µM in experiment [1] was found to be 80%.
For `CCN(CC)c1nc(NCCCCCNc2nc(N(CC)CC)nc3ccccc23)c2ccccc2n1` [Example 2], affinity in experiment [2] was put at a Ki of 8 nM. This counts as single-digit nanomolar.
